Source: patent US20210113501A1, “METHOD OF ADMINISTERING BETA-HYDROXY-BETA-METHYLBUTYRATE (HMB)” (Metabolic Technologies, Inc., priority 2009, published 2021)

Assay: Study 2 blood chemistry
Assay type: in vivo, human
Details: for Aspartate Aminotransferase / Gamma-glutamyl: in U/L (unit assumed); for A:G Ratio % Change / Alanine Aminotransferase % Change / Albumin % Change / Alkaline Phosphatase % Change / Aspartate Aminotransferase % Change / Blood Urea Nitrogen % Change / CO2 % Change / Chloride % Change / Cholesterol Ratio % Change / Creatinine % Change / Direct Bilirubin % Change / Gamma-glutamyl % Change / Globulin % Change / Glucose % Change / HDL % Change / Iron % Change / Iron Binding Capacity % Change / Iron Saturation % Change / LDL % Change / Lactate Dehydrogenase % Change / Phosphorus % Change / Potassium % Change / Protein % Change / Sodium % Change / Total Bilirubin % Change / Total Cholesterol % Change / Triglycerides % Change / UIBC % Change / Uric Acid % Change: Before to After
Experimental: Study 2 design. Study 2 was conducted similar to study 1 with the following modifications. In study 2, plasma levels of HMB were measured for 1440 min (24 h) and total urine collection was also performed for measurement of urinary HMB excretion during this period. After the 180 min blood sample, the subjects were allowed to leave the laboratory and were instructed to return to the laboratory for additional blood samples at 360, 720, and 1440 min after the ingestion of the supplement. As in study 1, each subject took each of the treatments with at least a one week washout period between treatments. Samples were again stored frozen at −70° C. for analysis of plasma and urinary HMB concentrations. Pre-ingestion, 180 min and 1440 min blood samples were again assayed for the same measurements already for study 1. Subjects were provided with a standardized lunch after the 180 min blood sampling and instructed to eat this at approximately 240 min post ingestion. Following the 720 min blood sample, subjects were instructed to eat a normal evening meal before 10 pm. Subjects reported back to the laboratory the following morning for the fasted 1440 min blood sample. A urine collection container was provided and subjects collected all urine produced during the experimental 24 h experimental period. The urine was stored refrigerated when not being collected. Urine volumes were measured and samples of the total urine collection were taken and stored frozen at −70° C. until analyzed for HMB.
The data were analyzed using a crossover design with Proc GLM in SAS. (45) For the timed sampling of plasma HMB a repeated measures polynomial model was used. The model included subject, order, and treatment main effects and time by treatment interaction where appropriate. For other parameters Proc GLM was also used with subject, order, and treatment main effects and the p values are reported for the treatment main effect. Statistical significance was determined for p<0.05 and a trend was determined for 0.05<p<0.10.

CC(C)(O)CC(=O)O [HMB-Acid Gel Swallow, 3-hydroxy-3-methylbutyric acid]
A:G Ratio (After (24 h)): 1.8 ± 0.1
Alanine Aminotransferase (After (24 h)): 16.4 ± 1.7 IU/L
Albumin (After (24 h)): 4.3 ± 0.1 g/dL
Alkaline Phosphatase (After (24 h)): 74.1 ± 7.6 IU/L
Blood Urea Nitrogen (After (24 h)): 13.9 ± 1.4 mg/dL
CO2 (After (24 h)): 27.8 ± 0.9 mEq/L
Chloride (After (24 h)): 102.8 ± 0.7 mEq/L
Cholesterol Ratio (After (24 h)): 3.2 ± 0.2
Creatinine (After (24 h)): 1.0 ± 0.1 mg/dL
Direct Bilirubin (After (24 h)): 0.1 ± 0.04 mg/dL
Globulin (After (24 h)): 2.4 ± 0.2 g/dL
Glucose (After (24 h)): 79.9 ± 1.9 mg/dL
HDL (After (24 h)): 56.4 ± 2.9 mg/dL
Iron (After (24 h)): 53.8 ± 10.8 µg/dL
Iron Binding Capacity (After (24 h)): 395.1 ± 34.7 µg/dL
Iron Saturation (After (24 h)): 16.9 ± 4.6%
LDL (After (24 h)): 96.1 ± 8.1 mg/dL
Lactate Dehydrogenase (After (24 h)): 136.6 ± 11.6 IU/L
Phosphorus (After (24 h)): 4.5 ± 0.2 mg/dL
Potassium (After (24 h)): 4.7 ± 0.2 mEq/L
Protein (After (24 h)): 6.7 ± 0.2 g/dL
Sodium (After (24 h)): 141.5 ± 0.9 mEq/L
Total Bilirubin (After (24 h)): 0.5 ± 0.1 mg/dL
Total Cholesterol (After (24 h)): 176.9 ± 11.8 mg/dL
Triglycerides (After (24 h)): 121.4 ± 22.7 mg/dL
UIBC (After (24 h)): 335.1 ± 42.1 µg/dL
Uric Acid (After (24 h)): 4.8 ± 0.3 mg/dL
Aspartate Aminotransferase (After (24 h)): 21.3 ± 0.7
Gamma-glutamyl (After (24 h)): 14.0 ± 1.0
A:G Ratio (Before): 1.9 ± 0.2
Alanine Aminotransferase (Before): 16.4 ± 1.6 IU/L
Albumin (Before): 4.1 ± 0.1 g/dL
Alkaline Phosphatase (Before): 64.8 ± 7.3 IU/L
Blood Urea Nitrogen (Before): 14.5 ± 1.4 mg/dL
CO2 (Before): 24.8 ± 1.0 mEq/L
Chloride (Before): 103.1 ± 0.8 mEq/L
Cholesterol Ratio (Before): 3.2 ± 0.2
Creatinine (Before): 1.0 ± 0.1 mg/dL
Direct Bilirubin (Before): 0.1 ± 0.03 mg/dL
Globulin (Before): 2.3 ± 0.2 g/dL
Glucose (Before): 74.1 ± 2.0 mg/dL
HDL (Before): 51.4 ± 2.8 mg/dL
Iron (Before): 68.0 ± 13.4 µg/dL
Iron Binding Capacity (Before): 378.6 ± 32.1 µg/dL
Iron Saturation (Before): 20.3 ± 5.0%
LDL (Before): 90.8 ± 7.0 mg/dL
Lactate Dehydrogenase (Before): 155.9 ± 13.9 IU/L
Phosphorus (Before): 4.2 ± 0.2 mg/dL
Potassium (Before): 4.1 ± 0.1 mEq/L
Protein (Before): 6.4 ± 0.1 g/dL
Sodium (Before): 139.9 ± 0.7 mEq/L
Total Bilirubin (Before): 0.5 ± 0.1 mg/dL
Total Cholesterol (Before): 164.6 ± 10.5 mg/dL
Triglycerides (Before): 112.6 ± 18.4 mg/dL
UIBC (Before): 310.6 ± 42.4 µg/dL
Uric Acid (Before): 4.7 ± 0.1 mg/dL
A:G Ratio % Change: −2.6%
Alanine Aminotransferase % Change: 0.0%
Albumin % Change: 4.5%
Alkaline Phosphatase % Change: 14.5%
Aspartate Aminotransferase % Change: −8.6%
Blood Urea Nitrogen % Change: −4.3%
CO2 % Change: 12.1%
Chloride % Change: −0.4%
Cholesterol Ratio % Change: −2.3%
Creatinine % Change: −0.6%
Direct Bilirubin % Change: 6.0%
Gamma-glutamyl % Change: 5.7%
Globulin % Change: 6.0%
Glucose % Change: 7.8%
HDL % Change: 9.7%
Iron % Change: −21.0%
Iron Binding Capacity % Change: 4.4%
Iron Saturation % Change: −16.7%
LDL % Change: 5.9%
Lactate Dehydrogenase % Change: −12.3%
Phosphorus % Change: 6.2%
Potassium % Change: 14.0%
Protein % Change: 5.1%
Sodium % Change: 1.2%
Total Bilirubin % Change: 2.6%
Total Cholesterol % Change: 7.4%
Triglycerides % Change: 7.8%
UIBC % Change: 7.9%
Uric Acid % Change: 1.9%
Aspartate Aminotransferase (Before): 23.3 ± 0.9
Gamma-glutamyl (Before): 13.3 ± 1.2

CC(C)(O)CC(=O)[O-].CC(C)(O)CC(=O)[O-].[Ca+2] [CaHMB, calcium β-hydroxy-β-methylbutryate, reference compound]
A:G Ratio (After (24 h)): 1.8 ± 0.1
Alanine Aminotransferase (After (24 h)): 14.9 ± 2.2 IU/L
Albumin (After (24 h)): 4.2 ± 0.1 g/dL
Alkaline Phosphatase (After (24 h)): 66.8 ± 6.9 IU/L
Blood Urea Nitrogen (After (24 h)): 13.4 ± 1.0 mg/dL
CO2 (After (24 h)): 27.3 ± 0.6 mEq/L
Chloride (After (24 h)): 103.0 ± 0.5 mEq/L
Cholesterol Ratio (After (24 h)): 3.1 ± 0.2
Creatinine (After (24 h)): 1.0 ± 0.1 mg/dL
Direct Bilirubin (After (24 h)): 0.1 ± 0.04 mg/dL
Globulin (After (24 h)): 2.4 ± 0.1 g/dL
Glucose (After (24 h)): 80.3 ± 2.4 mg/dL
HDL (After (24 h)): 54.0 ± 3.5 mg/dL
Iron (After (24 h)): 59.9 ± 12.2 µg/dL
Iron Binding Capacity (After (24 h)): 377.5 ± 30.3 µg/dL
Iron Saturation (After (24 h)): 17.5 ± 4.2%
LDL (After (24 h)): 88.6 ± 5.9 mg/dL
Lactate Dehydrogenase (After (24 h)): 142.4 ± 10.5 IU/L
Phosphorus (After (24 h)): 4.4 ± 0.1 mg/dL
Potassium (After (24 h)): 4.7 ± 0.1 mEq/L
Protein (After (24 h)): 6.5 ± 0.2 g/dL
Sodium (After (24 h)): 141.4 ± 0.5 mEq/L
Total Bilirubin (After (24 h)): 0.5 ± 0.2 mg/dL
Total Cholesterol (After (24 h)): 162.9 ± 7.1 mg/dL
Triglycerides (After (24 h)): 106.9 ± 17.6 mg/dL
UIBC (After (24 h)): 317.6 ± 38.3 µg/dL
Uric Acid (After (24 h)): 4.2 ± 0.5 mg/dL
Aspartate Aminotransferase (After (24 h)): 20.0 ± 1.1
Gamma-glutamyl (After (24 h)): 14.3 ± 1.4
A:G Ratio (Before): 1.9 ± 0.1
Alanine Aminotransferase (Before): 15.4 ± 1.8 IU/L
Albumin (Before): 4.1 ± 0.1 g/dL
Alkaline Phosphatase (Before): 65.5 ± 7.3 IU/L
Blood Urea Nitrogen (Before): 14.8 ± 1.4 mg/dL
CO2 (Before): 24.9 ± 0.6 mEq/L
Chloride (Before): 102.4 ± 0.5 mEq/L
Cholesterol Ratio (Before): 3.1 ± 0.2
Creatinine (Before): 1.0 ± 0.1 mg/dL
Direct Bilirubin (Before): 0.2 ± 0.1 mg/dL
Globulin (Before): 2.2 ± 0.1 g/dL
Glucose (Before): 70.8 ± 0.8 mg/dL
HDL (Before): 52.3 ± 2.7 mg/dL
Iron (Before): 99.0 ± 20.0 µg/dL
Iron Binding Capacity (Before): 371.8 ± 28.6 µg/dL
Iron Saturation (Before): 28.4 ± 5.8%
LDL (Before): 88.6 ± 7.2 mg/dL
Lactate Dehydrogenase (Before): 161.8 ± 12.6 IU/L
Phosphorus (Before): 4.0 ± 0.1 mg/dL
Potassium (Before): 4.1 ± 0.1 mEq/L
Protein (Before): 6.4 ± 0.2 g/dL
Sodium (Before): 139.5 ± 0.8 mEq/L
Total Bilirubin (Before): 0.6 ± 0.1 mg/dL
Total Cholesterol (Before): 160.4 ± 8.0 mg/dL
Triglycerides (Before): 97.4 ± 12.5 mg/dL
UIBC (Before): 272.8 ± 39.5 µg/dL
Uric Acid (Before): 4.8 ± 0.3 mg/dL
A:G Ratio % Change: −3.4%
Alanine Aminotransferase % Change: −3.3%
Albumin % Change: 0.6%
Alkaline Phosphatase % Change: 1.9%
Aspartate Aminotransferase % Change: −11.6%
Blood Urea Nitrogen % Change: −9.3%
CO2 % Change: 9.5%
Chloride % Change: 0.6%
Cholesterol Ratio % Change: −0.8%
Creatinine % Change: −1.5%
Direct Bilirubin % Change: −37.4%
Gamma-glutamyl % Change: 1.8%
Globulin % Change: 6.7%
Glucose % Change: 13.4%
HDL % Change: 3.3%
Iron % Change: −39.5%
Iron Binding Capacity % Change: 1.5%
Iron Saturation % Change: −38.3%
LDL % Change: 0.0%
Lactate Dehydrogenase % Change: −12.0%
Phosphorus % Change: 10.6%
Potassium % Change: 14.8%
Protein % Change: 2.8%
Sodium % Change: 1.3%
Total Bilirubin % Change: −17.8%
Total Cholesterol % Change: 1.6%
Triglycerides % Change: 9.8%
UIBC % Change: 16.5%
Uric Acid % Change: −12.0%
Aspartate Aminotransferase (Before): 22.6 ± 1.4
Gamma-glutamyl (Before): 14.0 ± 1.9
